According to article PMC8146397 (Nanomaterials, 2021):
Several values for one entry are separate records, joined by “and”; a condition that tells them apart may be missing. Equal entries are not always repeated.

Legend:
[1] = In vitro dissolution / CIP release at pH 5.0 for 72 h; type: physicochemical
[2] = tested on: Salmonella typhi strains; experiment: Antibacterial activity, CFU count / sterilization rate; type: cell-based; details: Salmonella typhi 3 × 10^4 cells/ml, 3 h at 37 °C, CFU after 18 h
Protocol: After incubation, solidified LB agar plat was impregnated with 100 μL of the bacterial suspension.

[3] = In vivo pharmacokinetics after oral delivery (HPLC of plasma); details: mice
Protocol: Healthy mice weighing 30 g were kept in the primate facility with free access to food and water a day before the commencement of the experiment. The mice were divided into two groups (n = 5). […] Blood plasma was stored at −20 °C until further use.

[4] = release kinetic model Ct = C0 + k0t
[5] = release kinetic model Mi/M∞ = Kth + b
[6] = release kinetic model logQ0 + Kit/2.3

In the case of `O=C(O)c1cn(C2CC2)c2cc(N3CCNCC3)c(F)cc2c1=O` [CIP, Ciprofloxacin], the “Zero Order K^0” value [1, 4] is reported as 32.90, the “Zero Order R^2” value [1, 4] is reported as 0.5787 ± 2.57 and the “Korsmeyer-Peppas N (release exponent n)” value [1, 5] is reported as 0.502. For the same compound, the “Korsmeyer-Peppas R2” value [1, 5] was 0.9370 ± 4.85, the “Higuchi KH” value ([1]; release kinetic model Q = KH√t) was 53.70 and the “Higuchi R2” value ([1]; release kinetic model Q = KH√t) was 0.9360 ± 3.57. For the same compound, the “First Order K1” value [1, 6] was 0.877, the “First Order R^2” value [1, 6] was 0.9534 ± 1.57 and the Sterilizing rate [2] was 9 ± 3.25%. For the same compound, the “AUMC 0-inf” value [3] was 900.65 μg/mL × h^2 and 900.65 ± 1.57 μg/mL × h^2.
